Reference: patent EP1289977B1, “TRITERPENOID DERIVATIVES AND THEIR USE AS ANTIPROLIFERATIVE AGENTS” (Univerzita palackeho V Olomouci, priority 2000, dated 2001)

Experiments:
Format in all cases: cell-based
B16 = assay: MTT cytotoxicity assay, B16; conditions: B16, mouse melanoma, 72 hours, read-out: TCS50
Excerpt: (§1) One of the parameters used as the basis for colorimetric assays is the metabolic activity of viable cells. For example, a microtiter assay which uses the tetrazolium salt MTT is now widely used to quantitate cell proliferation and cytotoxicity [Hajduch M, Mihal V, Minarik J, Fáber E, ? afárová M, Weigl E, Antálek P.: Cytotechnology, 1996,19,243-245]. For instance, this assay is used in drug screening programs and in chemosensitivity testing. Because tetrazolium salts are cleaved only by metabolically active cells, these assays exclusively detect viable cells. In the case of the MTT assay, yellow soluble tetrazolium salt is reduced to a coloured water-insoluble formazan salt. After it is solubilized, the formazan formed can easily and rapidly be quantified in a conventional ELISA plate reader at 570 nm (maximum absorbancy). The quantity of reduced formazan corresponds to the number of vital cells in the culture. […]
(§2) The cell suspensions that were prepared and diluted according to the particular cell type and the expected target cell density (2.500-30.000 cells per well based on cell growth characteristics) were added by pipette (80 µl) into 96/well microtiter plates. […] Usually, test compounds were evaluated at six 4-fold dilutions. […] The optical density (OD) was measured at 540nm with the Labsystem iEMS Reader MF (UK). […]

B16F = assay: MTT cytotoxicity assay, B16F; conditions: mouse melanoma, metastatic, 72 hours, read-out: TCS50
Excerpt: as §1, §2

SW620 = assay: MTT cytotoxicity assay, SW620; conditions: SW-620, SW620, human colon cancer, metastasis, 72 hours, read-out: TCS50
Excerpt: as §1, §2

U87MG = assay: MTT cytotoxicity assay, U87MG; conditions: U-87 MG, human glioblastoma, 72 hours, read-out: TCS50
Excerpt: as §1, §2

HepG2 = assay: MTT cytotoxicity assay, HepG2; conditions: HepG2, human hepatocellular carcinoma, 72 hours, read-out: TCS50
Excerpt: as §1, §2

A549 = assay: MTT cytotoxicity assay, A549; conditions: A549, human lung adenocarcinoma, 72 hours, read-out: TCS50
Excerpt: as §1, §2

MCF-7 = assay: MTT cytotoxicity assay, MCF-7; conditions: MCF7, MCF-7, human breast cancer, estrogen dependent, p53+/+, Rb +/+, 72 hours, read-out: TCS50
Excerpt: as §1, §2

U20S = assay: MTT cytotoxicity assay, U20S; conditions: human osteosarcoma, p53+/-, Rb +/-, 72 hours, read-out: TCS50
Excerpt: as §1, §2

Saos2 = assay: MTT cytotoxicity assay, Saos2; conditions: SAOS-2, Saos2, human osteosarcoma, p53-/-, Rb-/-, 72 hours, read-out: TCS50
Excerpt: as §1, §2

BT549 = assay: MTT cytotoxicity assay, BT549; conditions: BT-549, BT549, human breast cancer, p53mut/mut, 72 hours, read-out: TCS50
Excerpt: as §1, §2

MDA-MB-238 = assay: MTT cytotoxicity assay, MDA-MB-238; conditions: MDA-MB-238, human breast cancer, estrogen independent, p53mut/mut, 72 hours, read-out: TCS50
Excerpt: as §1, §2

LNCaP = assay: MTT cytotoxicity assay, LNCaP; conditions: human prostate cancer, androgen dependent, 72 hours, read-out: TCS50
Excerpt: as §1, §2

DU145 = assay: MTT cytotoxicity assay, DU145; conditions: DU-145, DU145, human prostate cancer, androgen independent, Rb-/-, 72 hours, read-out: TCS50
Excerpt: as §1, §2

HT-29 = assay: MTT cytotoxicity assay, HT-29; conditions: HT-29, human colon cancer, 72 hours, read-out: TCS50
Excerpt: as §1, §2

OVCAR-3 = assay: MTT cytotoxicity assay, OVCAR-3; conditions: OVCAR-3, human ovarian cancer, 72 hours, read-out: TCS50
Excerpt: as §1, §2

Caco-2 = assay: MTT cytotoxicity assay, Caco-2; conditions: Caco-2, human colon cancer, 72 hours, read-out: TCS50
Excerpt: as §1, §2

MEL-3 = assay: MTT cytotoxicity assay, MEL-3; conditions: MEL-3, human melanoma, 72 hours, read-out: TCS50
Excerpt: as §1, §2

human normal lymphocytes = assay: MTT cytotoxicity assay, normal lymphocytes; conditions: Lymphocyte, human normal lymphocytes (non-malignant), 72 hours, read-out: TCS50
Excerpt: as §1, §2

NIH3T3 = assay: MTT cytotoxicity assay, NIH3T3; conditions: NIH3T3, mouse immortalised fibroblasts (non-malignant), 72 hours, read-out: TCS50
Excerpt: as §1, §2

K562 = assay: MTT cytotoxicity assay, K562; conditions: K562, human chronic myelogenous leukemia, 72 hours, read-out: TCS50
Excerpt: as §1, §2

K562-CdA = assay: MTT cytotoxicity assay, K562-CdA; conditions: human chronic myelogenous leukemia, cladrubin resistant, 72 hours, read-out: TCS50
Excerpt: as §1, §2

K562-ARA-C = assay: MTT cytotoxicity assay, K562-ARA-C; conditions: human chronic myelogenous leukemia, cytarabin resistant, 72 hours, read-out: TCS50
Excerpt: as §1, §2

K562-FLUD = assay: MTT cytotoxicity assay, K562-FLUD; conditions: human chronic myelogenous leukemia, fludarabin resistant, 72 hours, read-out: TCS50
Excerpt: as §1, §2

CEM = assay: MTT cytotoxicity screening assay, CEM; conditions: CCRF-CEM, human T-lymphoblastic leukemia, 72 hours, read-out: TCS50
Excerpt: One of the parameters used as the basis for colorimetric assays is the metabolic activity of viable cells. For example, a microtiter assay which uses the tetrazolium salt MTT is now widely used to quantitate cell proliferation and cytotoxicity [Hajduch M, Mihal V, Minarik J, Fáber E, ? afárová M, Weigl E, Antálek P.: Cytotechnology, 1996,19,243-245]. For instance, this assay is used in drug screening programs and in chemosensitivity testing. Because tetrazolium salts are cleaved only by metabolically active cells, these assays exclusively detect viable cells. In the case of the MTT assay, yellow soluble tetrazolium salt is reduced to a coloured water-insoluble formazan salt. After it is solubilized, the formazan formed can easily and rapidly be quantified in a conventional ELISA plate reader at 570 nm (maximum absorbancy). The quantity of reduced formazan corresponds to the number of vital cells in the culture.
Human T-lymphoblastic leukaemia cell line CEM was used for routine screening of these compounds. […] The cells were maintained in Nunc/Coming 80 cm^2 plastic tissue culture flasks and cultured in cell culture medium (DMEM with 5 g/l glucose, 2mM glutamine, 100 U/ml penicillin, 100 µg/ml streptomycin, 10% foetal calf serum and sodium bicarbonate). Individual compounds were dissolved in 10% dimethylsulfoxide/saline, pH 8.0.
The cell suspensions that were prepared and diluted according to the particular cell type and the expected target cell density (2.500-30.000 cells per well based on cell growth characteristics) were added by pipette (80 µl) into 96/well microtiter plates. Inoculates were allowed a pre-incubation period of 24 hours at 37°C and 5% CO2 for stabilisation. Four-fold dilutions of the intended test concentration were added at time zero in 20 µl aliquots to the microtiter plate wells. Usually, test compounds were evaluated at six 4-fold dilutions. In routine testing, the highest well concentration was 250 µM, but it may differ, depending on the agent. All drug concentrations were examined in duplicate. Incubations of cells with the test compounds lasted for 72 hours at 37°C, in 5% CO2 atmosphere and 100% humidity. At the end of the incubation period, the cells were assayed by using the MTT assay. Ten microliters of the MTT stock solution were pipetted into each well and incubated further for 1-4 hours. […] The optical density (OD) was measured at 540nm with the Labsystem iEMS Reader MF (UK). The tumour cell survival (TCS) was calculated using the following equitation: TCS= (ODdrug exposed well /mean ODcontrol wells) x 100%. The TCS50 value, the drug concentration lethal to 50% of the tumour cells, was calculated from the obtained dose response curves. […]

CEM-DNR 1/C2 = assay: MTT cytotoxicity assay, CEM-DNR 1/C2; conditions: CEM-DNR 1/C2, human T-lymphoblastic leukemia, daunorubicin resistant, 72 hours, read-out: TCS50
Excerpt: as §1, §2

CEM-DNR bulk = assay: MTT cytotoxicity assay, CEM-DNR bulk; conditions: human T-lymphoblastic leukemia, daunorubicin resistant, 72 hours, read-out: TCS50
Excerpt: as §1, §2

CEM-VCR 1/F3 = assay: MTT cytotoxicity assay, CEM-VCR 1/F3; conditions: CEM-VCR 1/F3, human T-lymphoblastic leukemia, vincristin resistant, 72 hours, read-out: TCS50
Excerpt: as §1, §2

CEM-VCR 3/D5 = assay: MTT cytotoxicity assay, CEM-VCR 3/D5; conditions: CEM-VCR 3/D5, human T-lymphoblastic leukemia, vincristin resistant, 72 hours, read-out: TCS50
Excerpt: as §1, §2

CEM-VCR bulk = assay: MTT cytotoxicity assay, CEM-VCR bulk; conditions: human T-lymphoblastic leukemia, vincristin resistant, 72 hours, read-out: TCS50
Excerpt: as §1, §2

K562-GEM = assay: MTT cytotoxicity assay, K562-GEM; conditions: human chronic myelogenous leukemia, gemcitabin resistant, 72 hours, read-out: TCS50
Excerpt: as §1, §2

`C=C(C)[C@@H]1CC[C@]2(C(=O)O)CC[C@]3(C)[C@H](CC[C@@H]4[C@@]5(C)CC[C@H](O)C(C)(C)[C@@H]5CC[C@]43C)[C@@H]12` [Betulinic Acid, betulinic acid, reference compound] was tested, and the IC50 (B16) was 36 µM, the IC50 (B16F) was 4.6 µM and the IC50 (SW620) was 250 µM. For the same compound, the IC50 (U87MG) was 250 µM, the IC50 (HepG2) was 3.6 µM and the IC50 (A549) was 236 µM. It also gave an IC50 (MCF-7) of 194 µM, an IC50 (U20S) of 250 µM and an IC50 (Saos2) of 250 µM. It also gave an IC50 (BT549) of 250 µM, an IC50 (MDA-MB-238) of 195 µM and an IC50 (LNCaP) of 244 µM. It also gave an IC50 (DU145) of 241 µM, an IC50 (HT-29) of 250 µM and an IC50 (OVCAR-3) of 164 µM. For the same compound, the IC50 (Caco-2) was 20 µM, the IC50 (MEL-3) was 2.7 µM and the IC50 (human normal lymphocytes) was 250 µM. The IC50 (NIH3T3) was 250 µM, the IC50 (K562) was 250 µM and the IC50 (K562-CdA) was 250 µM. It also gave an IC50 (K562-ARA-C) of 250 µM, an IC50 (K562-FLUD) of 250 µM and an IC50 (CEM) of 250 µM. For the same compound, the IC50 (CEM-DNR 1/C2) was 250 µM, the IC50 (CEM-DNR bulk) was 250 µM and the IC50 (CEM-VCR 1/F3) was 19 µM. It also gave an IC50 (CEM-VCR 3/D5) of 24 µM and an IC50 (CEM-VCR bulk) of 69 µM.

`CC1(C)CC[C@]23CC[C@]4(C)[C@H](CC[C@@H]5[C@@]6(C)CC(Br)C(=O)C(C)(C)[C@@H]6CC[C@]54C)[C@H]2[C@H]1OC3` (stereo partly drawn) [III.3, 2-brom-3-oxo-19β,28β-epoxy-18α-oleanan] was tested, and the IC50 (B16) was 2.1 µM, the IC50 (B16F) was 4.7 µM and the IC50 (SW620) was 1.2 µM. For the same compound, the IC50 (U87MG) was 5.1 µM, the IC50 (HepG2) was 1.7 µM and the IC50 (A549) was 1 µM. The IC50 (MCF-7) was 2.3 µM, the IC50 (U20S) was 1.5 µM and the IC50 (Saos2) was 1.8 µM. It also gave an IC50 (BT549) of 2 µM, an IC50 (MDA-MB-238) of 1.4 µM and an IC50 (LNCaP) of 1.1 µM. It also gave an IC50 (DU145) of 0.8 µM, an IC50 (HT-29) of 1.6 µM and an IC50 (OVCAR-3) of 1 µM. It also gave an IC50 (Caco-2) of 3 µM, an IC50 (MEL-3) of 1.3 µM and an IC50 (human normal lymphocytes) of 13 µM. The IC50 (NIH3T3) was 7.2 µM, the IC50 (K562) was 0.2 µM and the IC50 (K562-CdA) was 0.3 µM. It also gave an IC50 (K562-GEM) of 0.9 µM, an IC50 (K562-ARA-C) of 0.6 µM and an IC50 (K562-FLUD) of 0.4 µM. For the same compound, the IC50 (CEM) was 1 µM, the IC50 (CEM-DNR 1/C2) was 0.6 µM and the IC50 (CEM-DNR bulk) was 1.1 µM. For the same compound, the IC50 (CEM-VCR 1/F3) was 3.3 µM, the IC50 (CEM-VCR 3/D5) was 2.9 µM and the IC50 (CEM-VCR bulk) was 2.5 µM.

For `CC1(C)CC[C@]23CC[C@]4(C)[C@H](CC[C@@H]5[C@@]6(C)CC(N=[N+]=[N-])C(=O)C(C)(C)[C@@H]6CC[C@]54C)[C@H]2[C@H]1OC3` (stereo partly drawn) [III.10, 2-azido-3-oxo-19β,28β-epoxy-18α-oleanan], the IC50 (CEM) was 13 µM.

`CC1(C)CC[C@]23CC[C@]4(C)[C@H](CC[C@@H]5[C@@]6(C)CC(F)(F)C(=O)C(C)(C)[C@@H]6CC[C@]54C)[C@H]2[C@H]1OC3` [III.14, 19β,28β-epoxy-2,2-difluoro-18α-oleanan-3-one] showed an IC50 (CEM) of 170 µM.
